The values below come from publication PMC9083112, “D-Allulose (D-Psicose) Biotransformation From Allitol by a Newly Found NAD(P)-Dependent Alcohol Dehydrogenase From Gluconobacter frateurii NBRC 3264 and the Enzyme Characterization” (Frontiers in Microbiology, 2022).

pKi: −log10 of the molar value.

The assay addresses T1, NAD(P)-dependent alcohol dehydrogenase (ADH) (Gluconobacter frateurii, UniProt Z9DFN4ZG31).
T1 construct: primers encode N-terminal MAQALVLEK and C-terminal DVKLQIVL
T1 sequence (Z9DFN4ZG31 1-345): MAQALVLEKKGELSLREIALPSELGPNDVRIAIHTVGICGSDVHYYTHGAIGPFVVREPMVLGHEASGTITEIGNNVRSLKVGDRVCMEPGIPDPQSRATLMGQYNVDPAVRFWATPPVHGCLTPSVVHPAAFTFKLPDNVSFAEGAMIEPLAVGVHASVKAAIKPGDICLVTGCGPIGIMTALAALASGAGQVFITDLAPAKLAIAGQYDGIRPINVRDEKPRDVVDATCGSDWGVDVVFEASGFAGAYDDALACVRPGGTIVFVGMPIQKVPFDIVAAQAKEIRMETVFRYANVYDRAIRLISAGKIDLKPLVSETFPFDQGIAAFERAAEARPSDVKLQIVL
Put plainly: global fit (genetic algorithm) of HPLC time courses at […] allitol. It is filed as biochemical. The conditions noted are these: product inhibition, noncompetitive form with exponent alpha 1.326; one ki shared by fits with and without Co2+; allitol as substrate; NAD+ 2 mM, pH 7.0, 50 °C; purified or crude enzyme not stated.

In the case of `OCC1(O)OC[C@@H](O)[C@@H](O)[C@H]1O` (stereo partly drawn) [D-allulose], the pKi was 1.97.
